According to publication PMC10065799, “High-throughput profiling of sequence recognition by tyrosine kinases and SH2 domains using bacterial peptide display” (eLife, 2023):

Columns and labels:
c-Src kinase domain = c-Src kinase domain (Homo sapiens, UniProt P12931); test: pTyr-Var library bacterial peptide display kinase screen (enrichment scores); format: biochemical
EPHB1 kinase domain = test: as above; format: biochemical, human
MERTK kinase domain = test: as above; format: biochemical, human
[1] = test system: 4G10 Platinum pan-phosphotyrosine antibody; test: Phosphorylated pTyr-Var library selection with biotinylated pan-phosphotyrosine antibody; format: binding, mouse; conditions: enrichment score, sheet SH2-vs-peptide
Method: After the desired time of library phosphorylation, kinase activity was quenched with 25 mM EDTA and the cells were washed with PBS containing 0.2% BSA. Kinase-treated cells were then labeled with a 1:1000 dilution of biotinylated 4G10 Platinum anti-phosphotyrosine antibody (Millipore) for an hour on ice and washed with PBS containing 0.1% BSA and 2 mM EDTA (isolation buffer). The cells were finally resuspended in PBS containing 0.1% BSA. The phosphorylated, antibody-labeled cells were then mixed with magnetic beads from Dynabeads FlowComp Flexi kit (Invitrogen), at a ratio of 37.5 μL of washed beads per 50 μL of cell suspension, diluted into 450 μL of isolation buffer. The suspension was rotated at 4 °C for 30 minutes, then 375 μL of isolation buffer was added and the beads were separated from the bulk solution on a magnetic rack. The beads were washed once with 1 mL of isolation buffer, and then the supertantant were removed by aspiration. […] The bead/lysate mixture was centrifuged to pellet the beads and the mixture was stored at -20 °C.

Fes = test: pTyr-Var library bacterial peptide display kinase screen (enrichment scores); format: biochemical; conditions: mean of log2 of enrichment over R1-R6
Hck kinase domain = test: as above; format: biochemical, human; conditions: enrichment score
c-Src SH2 domain = c-Src SH2 domain (Homo sapiens, UniProt P12931); test: pTyr-Var library SH2 domain screen with SH2-dynabeads (enrichment scores); conditions: sheet c-Src
AncSZ kinase domain = test: pTyr-Var library bacterial peptide display kinase screen (enrichment scores); format: biochemical
Fer kinase domain = test: as above; format: biochemical, mouse
FGFR1 kinase domain = test: as above; format: biochemical, human
FGFR3 kinase domain = test: as above; format: biochemical, human
Grb2 SH2 domain = test: pTyr-Var library SH2 domain screen with SH2-dynabeads (enrichment scores)
Fyn kinase domain = test: pTyr-Var library bacterial peptide display kinase screen (enrichment scores); format: biochemical, human
c-Abl kinase domain = target: T1, c-Abl kinase domain (Mus musculus, UniProt P00520); test: as above; format: biochemical
T1 sequence (P00520 242-493 limits assumed): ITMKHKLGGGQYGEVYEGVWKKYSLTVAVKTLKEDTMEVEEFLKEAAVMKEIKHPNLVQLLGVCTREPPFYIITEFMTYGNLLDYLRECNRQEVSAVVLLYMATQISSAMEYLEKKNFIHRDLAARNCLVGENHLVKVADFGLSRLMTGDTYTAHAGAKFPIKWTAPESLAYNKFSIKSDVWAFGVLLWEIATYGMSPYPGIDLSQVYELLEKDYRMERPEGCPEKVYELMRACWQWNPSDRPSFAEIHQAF

Jak2 = test: as above; format: biochemical, human
SHP2 C-SH2 domain = test: pTyr-Var library SH2 domain screen with SH2-dynabeads (enrichment scores)
EPHB2 kinase domain = test: pTyr-Var library bacterial peptide display kinase screen (enrichment scores); format: biochemical, human
[2] = mean of log2 of enrichment over R1-R4
[3] = pTyr-Var library, enrichment score, replicate 1
[4] = pTyr-Var library, enrichment score, replicate 3
[5] = pTyr-Var library, enrichment score, replicate 4
[6] = mean of log2 enrichment of reference peptide, n = 4
[7] = pTyr-Var library, reference peptide enrichment, mean of n = 4
[8] = mean of log2 enrichment of reference peptide, n = 5
[9] = pTyr-Var library, reference peptide enrichment, mean of n = 5

- c-Src mean of log2(enrichment) (c-Src kinase domain; [2]): 0.391
- c-Src enrich. R1 (c-Src kinase domain; [3]): 1.08
- c-Src enrich. R3 (c-Src kinase domain; [4]): 1.298
- c-Src enrich. R4 (c-Src kinase domain; [5]): 1.223
- mean of log2(reference) (EPHB1 kinase domain; [6]): 0.89
- EPHB1 enrichment (mean) (EPHB1 kinase domain; pTyr-Var library, enrichment score, mean of replicates): 1.865
- ref. mean (EPHB1 kinase domain; [7]): 1.865
- mean of log2(reference) (MERTK kinase domain; [6]): 1.359
- ref. mean (MERTK kinase domain; [7]): 2.61
- Fes mean of log2(enrichment) (Fes): 1.487
- Hck enrich. R1 (Hck kinase domain; replicate 1): 1.102
- Hck enrich. R3 (Hck kinase domain; replicate 3): 1.0148
- Hck enrich. R4 (Hck kinase domain; replicate 4): 0.9933
- mean of log2(reference) (c-Src SH2 domain; mean of log2 enrichment of reference peptide, R1-R3): 2.001
- ref. mean (c-Src SH2 domain; reference peptide, mean of R1-R3): 4.137
- AncSZ mean of log2(enrichment) (AncSZ kinase domain; mean of log2 of enrichment over R1-R5): 1.515
- AncSZ enrich. R3 (AncSZ kinase domain; [4]): 3.27
- AncSZ enrich. R4 (AncSZ kinase domain; [5]): 3.639
- AncSZ enrich. R5 (AncSZ kinase domain; pTyr-Var library, enrichment score, replicate 5): 3.918
- Fer mean of log2(enrichment) (Fer kinase domain; [2]): 0.6409
- Fer enrich. R1 (Fer kinase domain; [3]): 1.74
- Fer enrich. R3 (Fer kinase domain; [4]): 2.063
- Fer enrich. R4 (Fer kinase domain; [5]): 1.716
- mean of log2(reference) (FGFR1 kinase domain; [8]): 0.2144
- ref. mean (FGFR1 kinase domain; [9]): 1.392
- mean of log2(reference) (FGFR3 kinase domain; [8]): 1.27
- ref. mean (FGFR3 kinase domain; [9]): 2.887
- Fyn mean of log2(enrichment) (Fyn kinase domain; [2]): -0.1485
- Fyn enrich. R1 (Fyn kinase domain; [3]): 1.939
- Fyn enrich. R3 (Fyn kinase domain; [4]): 1.639
- Fyn enrich. R4 (Fyn kinase domain; [5]): 0.1487
- c-Abl mean of log2(enrichment) (c-Abl kinase domain; [2]): 0.8901
- c-Abl enrich. R1 (c-Abl kinase domain; [3]): 1.339
- c-Abl enrich. R3 (c-Abl kinase domain; [4]): 1.7654
- c-Abl enrich. R4 (c-Abl kinase domain; [5]): 2.061
- Jak2 mean of log2(enrichment) (Jak2; mean of log2 of enrichment over R1-R3): 0.9825
- Jak2 enrichment (mean) (Jak2; pTyr-Var library, enrichment score, mean of replicates R1-R3): 2.035
- Jak2 enrich. R1 (Jak2; [3]): 2.166
- Jak2 enrich. R3 (Jak2; [4]): 1.407
- mean of log2(reference) (EPHB2 kinase domain; [6]): -0.3867
- ref. mean (EPHB2 kinase domain; [7]): 0.9336
Sequence: LRVGFYESDVM [A2M_Y708]
- 4G10 (mean) [1]: 1.415
- mean of log2(reference) (Grb2 SH2 domain; Grb2 SH2, mean of log2 enrichment of reference, R1-R3): -0.1031
- ref. mean (Grb2 SH2 domain; reference peptide enrichment score, Grb2 SH2, mean of R1-R3): 0.9341
- mean of log2(reference) (SHP2 C-SH2 domain; SHP2-C SH2, mean of log2 enrichment of reference, R1-R3): 0.01184
- ref. mean (SHP2 C-SH2 domain; reference peptide enrichment score, SHP2-C SH2, mean of R1-R3): 1.018
